Reference: patent US20210348125A1, “INDUCED STEM MEMORY T CELLS AND METHODS OF USE THEREOF” (Augusta University Research Institute, Inc., priority 2017, published 2021)

Tests used:
AB1-HA tumor model = conditions: CTX treatment at Day 9; cited from earlier work
MEK1 = MEK1 (Homo sapiens, UniProt Q02750); conditions: cited from earlier work
ERK1 or ERK2 = conditions: cited from earlier work
pMel-1 CD8^+ T-cells [1] = assay: Antigen re-challenge (recall response) of activated CD8+ T-cells; type: cell-based, mouse; conditions: re-challenge with gp100 peptide 72 hrs; vs untreated
Excerpt: FIGS. 4A-4C show FACS analysis of memory phenotype of activated cells (gp100 vs gp100 +MEKi) after antigen (Ag) re-challenge with gp100 peptide for 72 hrs. […]. FIGS. 4M-4O show the scheme of ACT of B16 tumor-bearing mice with respectively activated CD8^+ T-cells as indicated FIG. 4M, estimation of tumor volume FIG. 4N and percent survival FIG. 4O in treated groups. FIGS. 4P-4R show the estimation of numbers of adoptively transferred cells in spleens of treated mice 30 days after ACT as indicated. For the untreated (UT) and control (CTX) groups where the endpoint for euthanasia was reached earlier, the mice were sacrificed and spleens harvested and stored as single-cell suspensions at −80° C. At the end of the study, all samples were stained and processed together for FACS analysis. Representative of two experiments is shown. *P<0.05, **P<0.01, ***P<0.001.
Cell activation, drug treatment and adoptive transfer. FACS-sorted CD8^+ cells from pMel-1 mice were activated with gp100 peptide ([…] (SEQ ID NO:2); 1 μM/10^6 cells/mL) either alone or in combination with MEKi (500-1000 nM) in T-cell medium supplemented with 30 units of IL2 for 48 hours unless otherwise stated. In some experiments, at 48 h cells were washed and re-incubated in IL2-containing medium supplemented with gp100 and/or anti-OX40-Ab for 72 hours. […]

[2] = tested on: Abl1, AKT3, c-RAF, CamK1, CDK2, c-Met; conditions: cited from earlier work
pMel-1 CD8^+ T-cells [3] = assay: In vitro activation of pMel-1 CD8+ T-cells with gp100 peptide with or without MEKi; type: cell-based, mouse
Method: Mice and cell culture. 4-6-week-old C57BL/6 mice (wild-type (WT) and pMel-1) from Jackson Laboratory or in-house bred pMel-1 mice with transgenic CD8^+ T-cells having TCR from melanoma-specific gp10025-33 peptide were used as outlined in various experiments. Animals had free access to water and food. All experiments were performed under protocols approved by the Augusta University Georgia Cancer Center Institutional Animal Care and Use Committee (IACUC). Cancer cell lines used in the present study included TC1 (kindly provided by Dr. T-C Wu at Johns Hopkins University) and B16-melanoma (obtained from American Type Culture Collection (ATCC)). […] Primary murine CD8^+ cells were isolated by fluorescence-activated cell sorting (FACS) and in some cases by negative selection using magnetic beads (Miltenyi Biotec) and cultured in RPMI 1640 medium supplemented with 10% FBS, 2 mM glutamine, 10 mM HEPES and 55 μM β-mercaptoethanol. […]
Flow cytometry analyses. […] TMRM (Tetramethylrhodamine, methyl ester) is a cell-permeant, cationic, red-orange fluorescent dye that is readily sequestered by active mitochondria and has been used for estimation of mitochondrial potential was used as described before (Sukumar, M., et al., Cell Metabolism, 23: 63-76 (2016)). […]
Metabolic assays. […] OCR and ECAR were measured with an XFp flux analyzer (Seahorse Bioscience). […]

Chain of MEK1 (Q02750 whole entry, species assumed): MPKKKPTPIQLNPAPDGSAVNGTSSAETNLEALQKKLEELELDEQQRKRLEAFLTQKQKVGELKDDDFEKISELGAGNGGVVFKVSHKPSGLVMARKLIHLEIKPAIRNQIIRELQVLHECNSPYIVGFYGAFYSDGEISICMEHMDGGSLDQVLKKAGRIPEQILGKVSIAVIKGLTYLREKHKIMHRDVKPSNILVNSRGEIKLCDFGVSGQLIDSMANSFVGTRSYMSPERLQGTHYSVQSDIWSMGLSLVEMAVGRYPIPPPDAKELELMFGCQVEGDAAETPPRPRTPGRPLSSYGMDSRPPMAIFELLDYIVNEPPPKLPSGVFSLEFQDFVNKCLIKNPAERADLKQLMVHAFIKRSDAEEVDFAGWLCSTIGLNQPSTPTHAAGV

O=P1(N(CCCl)CCCl)NCCCO1 (stereo not shown) [CTX, Cyclophosphamide]
cure rate (AB1-HA tumor model): 75%

COc1cccc(-c2cc(=O)c3ccccc3o2)c1N [PD98059]
MEK-1-mediated activation of MAPK (MEK1): specifically inhibits
direct inhibition of ERK1 or ERK2 (ERK1 or ERK2): does not directly inhibit

Cn1cnc2c(F)c(Nc3ccc(Br)cc3Cl)c(C(=O)NOCCO)cc21 [Selumetinib]
recall response, expansion of terminal effector cells (CD62L-CD44+) (pMel-1 CD8^+ T-cells [1]): more than 2.5 fold

Cn1c(=O)c(F)c(Nc2ccc(I)cc2F)c2c(=O)n(C[C@@H](O)CO)cnc21 [TAK-733]
activity on Abl1, AKT3, c-RAF, CamK1, CDK2, c-Met, etc. [2]: inactive

CCOC(=O)[C@@]1(CCCCCCOc2ccc(Cl)cc2)CO1 [etomoxir]
cell proliferation of MEKi-treated pMel-1 CD8+ T-cells in the presence of etomoxir (pMel-1 CD8^+ T-cells [3]): significant decrease in cell proliferation

CC[C@H]1/C=C/C=C/C[C@@H](C)[C@H](O)[C@@](C)(O)C(=O)[C@@H](C)[C@H](O)[C@@H](C)C(=O)[C@@H](C)[C@H](O)[C@@H](C)/C=C/C(=O)O[C@@H]2[C@H](C)[C@H](CC1)O[C@]1(CC[C@H](C)[C@H](C[C@@H](C)O)O1)[C@H]2C [oligomycin]
proliferation of MEKi-treated CD8+ T-cells with oligomycin (pMel-1 CD8^+ T-cells [3]; gp100 activated, MEKi-treated cells): inhibition of proliferation
